This data set in a line: in vivo. The arrangement: species or system Wistarratten. The protocol: Es wurde festgestellt, daß die Verbindungen der Formel I außergewöhnlich gute enterale Resorbierbarkeiten aufweisen. Die Resorbierbarkeit wurde an Wistarratten untersucht, denen N,N′-Bis-(2-methoxy ethyl)pyridin-2,4-dicarbonsäureamid intragastral verabreicht wurde. Der Serumspiegel sank in den ersten Stunden nach Verabreichung der Substanz ab und ereichte nach ca. 5 Stunden ein nur noch leicht abfallendes Platteau.
Weibliche Wistarratten von ca. 150 g Körpergewicht erhalten 50 mg/kg N,N′-Bis(2-methoxyethyl)pyridin-2,4-dicarbonsäurediamid mittels Schlundsonde intragastral verabreicht. Es werden nach 0; 0,25; 0,5; 1; 3; 4; 5; 6; 8 und 14 Stunden jeweils 4 Ratten narkotisiert und über die Vena Cava entblutet. Das Blut wird sofort zentrifugiert und N,N′-Bis(2-methoxyethyl)pyridin-2,4-dicarbonsäurediamid mit Ether aus dem Serum extrahiert. Nach Verdampfen des Ethers wird der Rückstand in […] Fliessmittel aufgenommen. Das Fliessmittel besteht aus 0,05 M Phosphorsäure und Acetonitril (4:1). Von dieser Probe werden 50 µl in eine HPLC-Säule injiziert. Die Detektion erfolgt bei UV 200 nm und einer Retentionszeit von 2,2 min. Die Ergebnisse sind in der Tabelle 1 und der Figur 1 dokumentiert. Tabelle 1

For `COCCNC(=O)c1ccnc(C(=O)NCCOC)c1` [N,N′-Bis(2-methoxyethyl)pyridin-2,4-dicarbonsäurediamid], the “Zeit bis der Serumspiegel ein nur noch leicht abfallendes Platteau erreichte” value is given as “ca. 5 Stunden” and the “enterale Resorbierbarkeit” value is on record as “gute Resorbierbarkeit”. For the setting “rat, po, 50 mg/kg”, this molecule showed a concentration at 0.25 h of 38700 ng/mL, a concentration at 0.5 h of 32400 ng/mL, a concentration at 1 h of 15600 ng/mL and a concentration at 3 h of 700 ng/mL. Where the note is “rat, po, 50 mg/kg”, this molecule displayed a concentration at 4 h of 3300 ng/mL, a concentration at 5 h of 500 ng/mL, a concentration at 6 h of 600 ng/mL and a concentration at 8 h of 500 ng/mL. The molecule further yielded a concentration at 14 h (rat, po, 50 mg/kg) of 300 ng/mL.

These data come from patent EP0353668A2, “Process for the preparation of N,N-bis(alkoxyalkyl) diamides of pyridine-2,4-dicarboxylic acid” (HOECHST AKTIENGESELLSCHAFT, priority 1988, dated 1990).
